Values of other authors in patent US20050256097A1, “Pharmaceutical solution formulations containing 17-AAG” (Kosan Biosciences, Inc., priority 2004, published 2005).

SMILES	water solubility (in words)	water solubility (neutral pH)
C=CCNC1=C2C[C@@H](C)C[C@H](OC)[C@H](O)[C@@H](C)/C=C(\C)[C@H](OC(N)=O)[C@@H](OC)/C=C\C=C(/C)C(=O)NC(=CC1=O)C2=O [Sample 17-AAG, 17-allylamino-17-demethoxygeldanamycin]	very poor water solubility	about 0.1 mg/mL
COC1/C=C\C=C(/C)C(=O)NC2=CC(=O)C(NCCN(C)C)=C(C[C@@H](C)C[C@H](OC)[C@H](O)[C@@H](C)/C=C(\C)[C@@H]1OC(N)=O)C2=O (stereo partly shown) [Sample 17-DMAG, 17-(2-dimethylaminoethyl)amino-17-demethoxygeldanamycin]	more soluble	
COC1=C2C[C@@H](C)C[C@H](OC)[C@H](O)[C@@H](C)/C=C(\C)[C@H](OC(N)=O)[C@@H](OC)/C=C\C=C(/C)C(=O)NC(=CC1=O)C2=O [geldanamycin, Geldanamycin]	very poor water solubility	
